Laboratory results reported in patent publication US4613355A, “Antibiotic having herbicidal activity” (Satoshi Omura, priority 1983, dated 1986).
Structures can show the parent of a compound that is named as a salt.

How the values were obtained:
Format in all cases: in vivo
Allium fistulosum = assay: Foliage treatment (Example 8); parameters: key: 0 indicates no effect; 5 indicates complete kill; details: Plant No. 27 Allium fistulosum
Procedure: (§1) Aqueous solutions of Phosalacine (Na salt) at different concentrations were applied at a rate of 1500 liters per hectare to naturally occurring plants or plants which were cultured on plates as shown in the following Table at certain stages of growth. […]

Arctium lappa = assay: Foliage treatment (Example 8); parameters: key: 0 indicates no effect; 5 indicates complete kill; details: Plant No. 30 Arctium lappa, 14 days
Procedure: as §1

Artemisia princeps = assay: Foliage treatment (Example 8); parameters: key: 0 indicates no effect; 5 indicates complete kill; details: Plant No. 1 Artemisia princeps
Procedure: as §1

Brassica oleracea = assay: Foliage treatment (Example 8); parameters: key: 0 indicates no effect; 5 indicates complete kill; details: Plant No. 28 Brassica oleracea
Procedure: as §1

Cucumis sativus = assay: Foliage treatment (Example 8); parameters: key: 0 indicates no effect; 5 indicates complete kill; details: Plant No. 33 Cucumis sativus
Procedure: as §1

[1] = tested on: Eleucine indica var. carocana; assay: Foliage treatment (Example 8); parameters: key: 0 indicates no effect; 5 indicates complete kill; details: Plant No. 24 Eleucine indica var. carocana
Procedure: as §1

Euphonia supina = assay: Foliage treatment (Example 8); parameters: key: 0 indicates no effect; 5 indicates complete kill; details: Plant No. 36 Euphonia supina
Procedure: as §1

Glycine max = assay: Foliage treatment (Example 8); parameters: key: 0 indicates no effect; 5 indicates complete kill; details: Plant No. 34 Glycine max
Procedure: as §1

Miscanthus sinensis = assay: Foliage treatment (Example 8); parameters: key: 0 indicates no effect; 5 indicates complete kill; details: Plant No. 5 Miscanthus sinensis
Procedure: as §1

Oxalis corniculata = assay: Foliage treatment (Example 8); parameters: key: 0 indicates no effect; 5 indicates complete kill; details: Plant No. 35 Oxalis corniculata
Procedure: as §1

Castanea crenata = assay: Foliage treatment of naturally growing weeds and brush (Example 9); parameters: key: 0 indicates no effect; 5 indicates complete kill; details: Plant No. 8 Castanea crenata, One month
Description: (§2) Aqueous solutions of Phosalacine (Na salt) at different concentrations and 0.1% of octylphenylpolyoxy ethanol as surfactant were applied to the area where various weeds and brush were naturally growing at a rate of 1500 liter per hectare. One month after the foliage treatment, damage to weeds and brush was visually assessed on a scale of from 0 to 5 where 0 indicates no effect and 5 indicates complete kill as hereinbefore defined.

Pteridium aquilinum = assay: as above; parameters: key: 0 indicates no effect; 5 indicates complete kill; details: Plant No. 20 Pteridium aquilinum, One month
Description: as §2

Rubus palmatus = assay: as above; parameters: key: 0 indicates no effect; 5 indicates complete kill; details: Plant No. 18 Rubus palmatus, One month
Description: as §2

Smilax china = assay: as above; parameters: key: 0 indicates no effect; 5 indicates complete kill; details: Plant No. 17 Smilax china, One month
Description: as §2

Viburnum dilatatum = assay: as above; parameters: key: 0 indicates no effect; 5 indicates complete kill; details: Plant No. 21 Viburnum dilatatum, One month
Description: as §2

Zanthoxylum piperitum = assay: as above; parameters: key: 0 indicates no effect; 5 indicates complete kill; details: Plant No. 19 Zanthoxylum piperitum, One month
Description: as §2

[2] = tested on: various weeds and brush (overall evaluation); assay: as above; parameters: key: 0 indicates no effect; 5 indicates complete kill; details: OE overall evaluation, One month
Description: as §2

Eichhornia crassipes = assay: Activity against aquatic plants (Example 12); details: 0.1%, 1500 liter per hectare, 4 weeks after the treatment
Procedure: An aqueous solution containing 0.1% of Phosalacine (monosodium salt) and 0.1% of octylphenylpolyoxyethanol was applied to Eichhornia crassipes at a certain stage of growth, at a rate of 1500 liter per hectare as a foliage treatment. Damage to the plants was assessed visually 4 weeks after the treatment.

Killifishes (Medaka) = assay: Acute toxicity to fish, survival ratio (Example 13); details: killifish
Procedure: Killifishes (Japanese name, Medaka), were obtained from a market and maintained in a water bath at 25±2° C. for a week. Then the fishes (each group consisting of 10 fishes) were placed in water baths containing the test compounds at given concentrations as shown in the following Table. 24 and 48 hours after this, the survival ratio (%) of each group was visually counted to assess the acute toxity.

## CC(C)C[C@H](NC(=O)[C@H](C)NC(=O)[C@@H](N)CCP(C)(=O)O)C(=O)O [Phosalacine (Na salt)]
Allium fistulosum; 0.05%, 7 days
  damage to the plants, scale 0 to 5: 3
Allium fistulosum; 0.05%, 14 days
  damage to the plants, scale 0 to 5: 5
Allium fistulosum; 0.1%, 7 days
  damage to the plants, scale 0 to 5: 5
Allium fistulosum; 0.1%, 14 days
  damage to the plants, scale 0 to 5: 5
Arctium lappa; 0.05%
  damage to the plants, scale 0 to 5: 4
Arctium lappa; 0.1%
  damage to the plants, scale 0 to 5: 5
Artemisia princeps; 0.05%, 7 days
  damage to the plants, scale 0 to 5: 3
Artemisia princeps; 0.05%, 14 days
  damage to the plants, scale 0 to 5: 4
Artemisia princeps; 0.1%, 7 days
  damage to the plants, scale 0 to 5: 5
Artemisia princeps; 0.1%, 14 days
  damage to the plants, scale 0 to 5: 5
Brassica oleracea; 0.05%, 7 days
  damage to the plants, scale 0 to 5: 3
Brassica oleracea; 0.05%, 14 days
  damage to the plants, scale 0 to 5: 4
Brassica oleracea; 0.1%, 7 days
  damage to the plants, scale 0 to 5: 5
Brassica oleracea; 0.1%, 14 days
  damage to the plants, scale 0 to 5: 5
Cucumis sativus; 0.05%, 7 days
  damage to the plants, scale 0 to 5: 3
Cucumis sativus; 0.05%, 14 days
  damage to the plants, scale 0 to 5: 4
Cucumis sativus; 0.1%, 7 days
  damage to the plants, scale 0 to 5: 5
Cucumis sativus; 0.1%, 14 days
  damage to the plants, scale 0 to 5: 5
[1]; 0.05%, 7 days
  damage to the plants, scale 0 to 5: 3
[1]; 0.05%, 14 days
  damage to the plants, scale 0 to 5: 4
[1]; 0.1%, 7 days
  damage to the plants, scale 0 to 5: 5
[1]; 0.1%, 14 days
  damage to the plants, scale 0 to 5: 5
Euphonia supina; 0.05%, 7 days
  damage to the plants, scale 0 to 5: 3
Euphonia supina; 0.05%, 14 days
  damage to the plants, scale 0 to 5: 4
Euphonia supina; 0.1%, 7 days
  damage to the plants, scale 0 to 5: 5
Euphonia supina; 0.1%, 14 days
  damage to the plants, scale 0 to 5: 5
Glycine max; 0.05%, 7 days
  damage to the plants, scale 0 to 5: 3
Glycine max; 0.05%, 14 days
  damage to the plants, scale 0 to 5: 5
Glycine max; 0.1%, 7 days
  damage to the plants, scale 0 to 5: 5
Glycine max; 0.1%, 14 days
  damage to the plants, scale 0 to 5: 5
Miscanthus sinensis; 0.05%, 7 days
  damage to the plants, scale 0 to 5: 3
Miscanthus sinensis; 0.05%, 14 days
  damage to the plants, scale 0 to 5: 4
Miscanthus sinensis; 0.1%, 7 days
  damage to the plants, scale 0 to 5: 5
Miscanthus sinensis; 0.1%, 14 days
  damage to the plants, scale 0 to 5: 5
Oxalis corniculata; 0.05%, 7 days
  damage to the plants, scale 0 to 5: 3
Oxalis corniculata; 0.05%, 14 days
  damage to the plants, scale 0 to 5: 4
Oxalis corniculata; 0.1%, 7 days
  damage to the plants, scale 0 to 5: 5
Oxalis corniculata; 0.1%, 14 days
  damage to the plants, scale 0 to 5: 5
Castanea crenata; 0.05%
  damage to weeds and brush, scale 0 to 5: 3
Castanea crenata; 0.1%
  damage to weeds and brush, scale 0 to 5: 5
Castanea crenata; 0.2%
  damage to weeds and brush, scale 0 to 5: 5
Pteridium aquilinum; 0.05%
  damage to weeds and brush, scale 0 to 5: 3
Pteridium aquilinum; 0.1%
  damage to weeds and brush, scale 0 to 5: 5
Pteridium aquilinum; 0.2%
  damage to weeds and brush, scale 0 to 5: 5
Rubus palmatus; 0.05%
  damage to weeds and brush, scale 0 to 5: 3
Rubus palmatus; 0.1%
  damage to weeds and brush, scale 0 to 5: 5
Rubus palmatus; 0.2%
  damage to weeds and brush, scale 0 to 5: 5
Smilax china; 0.05%
  damage to weeds and brush, scale 0 to 5: 3
Smilax china; 0.1%
  damage to weeds and brush, scale 0 to 5: 5
Smilax china; 0.2%
  damage to weeds and brush, scale 0 to 5: 5
Viburnum dilatatum; 0.05%
  damage to weeds and brush, scale 0 to 5: 3
Viburnum dilatatum; 0.1%
  damage to weeds and brush, scale 0 to 5: 5
Viburnum dilatatum; 0.2%
  damage to weeds and brush, scale 0 to 5: 5
Zanthoxylum piperitum; 0.05%
  damage to weeds and brush, scale 0 to 5: 3
Zanthoxylum piperitum; 0.1%
  damage to weeds and brush, scale 0 to 5: 5
Zanthoxylum piperitum; 0.2%
  damage to weeds and brush, scale 0 to 5: 5
[2]; 0.05%
  damage to weeds and brush, scale 0 to 5: 3
[2]; 0.1%
  damage to weeds and brush, scale 0 to 5: 5
[2]; 0.2%
  damage to weeds and brush, scale 0 to 5: 5
Eichhornia crassipes
  Damage to the plants, assessed visually: completely killed
Killifishes (Medaka); 20 ppm, 24 hours
  Survival ratio (%): 100%
Killifishes (Medaka); 20 ppm, 48 hours
  Survival ratio (%): 100%
Killifishes (Medaka); 100 ppm, 24 hours
  Survival ratio (%): 100%
Killifishes (Medaka); 100 ppm, 48 hours
  Survival ratio (%): 50%
Killifishes (Medaka); 500 ppm, 24 hours
  Survival ratio (%): 0%
Killifishes (Medaka); 500 ppm, 48 hours
  Survival ratio (%): 0%
